# Entries after “also recorded” stand apart in the source; their conditions may differ.
# What was measured:
# [1] = Cytotoxicity assay (Alamar Blue); assay type: cell-based; conditions: human, HEK293 cells, 72 h exposure, mean ± SD, at least 3 independent experiments
# Description: The HEK293 cell line was obtained from the ECACC (European Collection of Authenticated Cell Cultures, cat. 85120602, Salisbury, UK). The cells were grown in monolayer culture in Dulbecco’s Modified Eagle Medium (DMEM) (PanEco, Moscow, Russia) supplemented with 2 mM of L-glutamine, 1% penicillin/streptomycin (Capricorn Scientific, Ebsdorfergrund, Germany), and 10% heat-inactivated fetal bovine serum (HyClone, Cytiva, Pasching, Austria) in a humidified atmosphere of 5% CO2 and at 37 °C (Binder, Tuttlingen, Germany). For analysis, the HEK293 cells were seeded into a 96-well plate (Corning Incorporated, Corning, NY, USA) in 100 μL of complete culture medium at a final concentration of 1 × 10^4 cells/well and cultured for 24 h for proper attachment. Subsequently, the medium was removed, and cells were exposed to the test inhibitor with different concentrations for 72 h in 100 μL of fresh complete culture medium. The sensitivity of the cells to test inhibitor molecules was detected using the vital dye Alamar Blue (Invitrogen, Carlsbad, CA, USA). The Alamar Blue assay was performed according to the procedure described by O’Brien et al.. After incubation with test inhibitor molecules, 10 μL of Alamar Blue reagent was added to each well, cell culture plates were returned to a humidified incubator, and the fluorescence was read after 3 h. The plates were exposed to an excitation wavelength of 545 nm, and the emission at 600 nm was measured with the CLARIOstar Plus (BMG Labtech, Ortenberg, Germany, Software Version 5.70 R2). To determine corresponding 50% cellular cytotoxicity (CC50) values, a four-parameter sigmoidal fit curve model (GraphPad Prism 8 software) was used to measure the data.
# E. coli MG1655 = experiment: Growth curves of E. coli MG1655 with antibiotics, with or without LpxC inhibitors (antibiotic potentiation); assay type: cell-based, Escherichia coli; conditions: for Activity: combined action together with the antibiotic, marking used for QSAR; for potentiation of kanamycin (sensitivity of cells): kanamycin 0.62 μM; for potentiation of kanamycin (sensitivity of cells) / potentiation of rifampicin (sensitivity of cells): inhibitor 50 or 100 µM; for potentiation of kanamycin (sensitivity of cells) / potentiating activity with nalidixic acid (growth inhibition) / potentiation of rifampicin (sensitivity of cells): OD600 growth curves; for potentiating activity with nalidixic acid (growth inhibition): nalidixic acid 17.22 μM, inhibitor 50–100 µM; for potentiation of rifampicin (sensitivity of cells): rifampicin 6.08 μM; for Activity: key: active (1); inactive (0)
# Description: (§1) Escherichia coli strain MG1655 and Pseudomonas aeruginosa strain ATCC 27853 were obtained from the American Type Culture Collection (ATCC; Rockville, MD, USA). Subculturing and inoculum preparation were prepared according to the Clinical and Laboratory Standards Institute (CLSI) recommended method, M7-A9 [42], using MHA and MHB.
# Growth curves were obtained with a Bioscreen C automated growth analysis system. Cultures of E. coli MG1655 were grown overnight at 37 °C, diluted 1:100 in fresh medium, inoculated into honeycomb wells in triplicate, and grown at 37 °C with maximum shaking using the platform of the Bioscreen C instrument. […] OD600 values were recorded automatically at specified times, and the means of the triplicate cultures were plotted.
# P. aeruginosa ATCC 27853 = experiment: MIC (broth microdilution) and growth curves of antibiotics in combination with 9c or 9d; assay type: cell-based, Pseudomonas aeruginosa; conditions: 24 h, broth microdilution
# Description: as §1
# Minimum inhibitory concentrations (MICs) for rifampicin and nalidixic acid were determined via the modified broth microdilution method in triplicate according to CLSI guidelines M7-A9 and M100-A30 [43]. The antibiotics were serially diluted twofold in 100 μL of MHB. The bacteria inoculum was 100 μL of a 1.0 × 10^6 CFU/mL dilution in MHB. MICs for antibiotics in the presence of 9c or 9d were determined with the same method.
# MIC endpoints were read after 24 h of incubation with an iMark microplate absorbance reader (Bio-Rad, Hercules, CA, USA). Growth curves of P. aeruginosa ATCC 27853 in the presence of rifampicin/nalidixic acid and 9c/9d were obtained using a multifunction microplate reader, SuperMax 3100 (ShanghaiFlash, Shanghai, China). Cells were grown in triplicate at 37 °C with aeration.
smiles,measurement,setting,value
O=C(NO)c1nc(-c2c(F)cccc2F)no1 [Compound 4a],CC50 at 72 h,[1],> 500 µM
same,Activity,E. coli MG1655,0
same,melting point,,117.4 °C (dec.)
O=C(NO)c1nc(-c2ccc(OC(F)(F)F)cc2)no1 [Compound 4b],CC50 at 72 h,[1],380 ± 10.2 µM
same,Activity,E. coli MG1655,0
same,melting point,,108.6 °C (dec.)
O=C(NO)c1nc(-c2cc(F)c(F)c(F)c2)no1 [Compound 4c],CC50 at 72 h,[1],> 500 µM
same,Activity,E. coli MG1655,0
same,melting point,,133.6 °C (dec.)
Cc1cccc(-c2noc(C(=O)NO)n2)c1 [Compound 4d],CC50 at 72 h,[1],457 ± 18.2 µM
same,Activity,E. coli MG1655,0
same,melting point,,106 °C (dec.)
COc1ccc(-c2noc(C(=O)NO)n2)cc1 [Compound 4e],CC50 at 72 h,[1],> 250 µM
same,Activity,E. coli MG1655,0
same,melting point,,144 °C (dec.)
O=C(NO)c1nc(-c2ccc(I)cc2)no1 [Compound 4f],CC50 at 72 h,[1],367 ± 53.9 µM
same,Activity,E. coli MG1655,0
same,melting point,,181.3 °C (dec.)
O=C(Cc1nc(-c2c(F)cccc2F)no1)NO [Compound 9a],CC50 at 72 h,[1],188 ± 31.2 µM
same,Activity,E. coli MG1655,0
same,melting point,,149.7 °C (dec.)
O=C(Cc1nc(-c2ccc(OC(F)(F)F)cc2)no1)NO [Compound 9b],CC50 at 72 h,[1],108 ± 23.9 µM
same,Activity,E. coli MG1655,0
same,melting point,,177 °C (dec.)
O=C(NO)c1cccc(-c2nc(-c3c(F)cccc3F)no2)c1 [Compound 14a],CC50 at 72 h,[1],25.5 ± 3.11 µM
same,Activity,E. coli MG1655,0
same,melting point,,204.2 °C (dec.)
O=C(NO)c1cccc(-c2nc(-c3ccc(OC(F)(F)F)cc3)no2)c1 [Compound 14b],CC50 at 72 h,[1],6.39 ± 1.32 µM
same,Activity,E. coli MG1655,0
same,melting point,,191 °C (dec.)
O=C(NO)c1cccc(-c2nc(-c3cc(F)c(F)c(F)c3)no2)c1 [Compound 14c],CC50 at 72 h,[1],4.53 ± 1.22 µM
same,Activity,E. coli MG1655,0
same,melting point,,188.5 °C (dec.)
O=C(NO)c1ccc(-c2nc(-c3ccc(OC(F)(F)F)cc3)no2)cc1 [Compound 14d],CC50 at 72 h,[1],5.28 ± 1.05 µM
same,Activity,E. coli MG1655,0
same,melting point,,236 °C (dec.)
O=C(NO)c1ccc(-c2nc(-c3ccccc3)no2)cc1 [Compound 14e],CC50 at 72 h,[1],15 ± 0.53 µM
same,Activity,E. coli MG1655,0
same,melting point,,265.4 °C (dec.)
O=C(CCc1nc(-c2c(F)cccc2F)no1)NO [Compound 17a],CC50 at 72 h,[1],30.8 ± 3.71 µM
same,Activity,E. coli MG1655,0
same,melting point,,99 °C (dec.)
O=C(CCc1nc(-c2ccc(OC(F)(F)F)cc2)no1)NO [Compound 17b],CC50 at 72 h,[1],42.4 ± 4.58 µM
same,Activity,E. coli MG1655,0
same,melting point,,120 °C (dec.)
O=C(CCc1nc(-c2cc(F)c(F)c(F)c2)no1)NO [Compound 17c],CC50 at 72 h,[1],59.2 ± 7.27 µM
same,Activity,E. coli MG1655,0
same,melting point,,122 °C (dec.)
Cc1cccc(-c2noc(CCC(=O)NO)n2)c1 [Compound 17d],CC50 at 72 h,[1],21.3 ± 2.53 µM
same,melting point,,115.8 °C (dec.)
O=C(Cc1noc(-c2ccc(Cl)cc2)n1)NO [Compound 23a],CC50 at 72 h,[1],112 ± 18.6 µM
same,Activity,E. coli MG1655,1
same,potentiation of kanamycin (sensitivity of cells),E. coli MG1655,significantly increased the sensitivity
same,potentiating activity with nalidixic acid (growth inhibition),E. coli MG1655,inhibited bacterial growth less effectively; also recorded: less effective
same,potentiation of rifampicin (sensitivity of cells),E. coli MG1655,significantly increased the sensitivity
same,melting point,,174 °C (dec.)
O=C(Cc1noc(-c2ccc(I)cc2)n1)NO [Compound 23b],CC50 at 72 h,[1],169 ± 22.5 µM
same,Activity,E. coli MG1655,0
same,melting point,,211.6 °C (dec.)
O=C(Cc1noc(-c2cccc(Cl)c2)n1)NO [Compound 23c],CC50 at 72 h,[1],143 ± 3.84 µM
same,Activity,E. coli MG1655,1
same,potentiation of kanamycin (sensitivity of cells),E. coli MG1655,significantly increased the sensitivity
same,potentiating activity with nalidixic acid (growth inhibition),E. coli MG1655,inhibited bacterial growth less effectively; also recorded: less effective
same,potentiation of rifampicin (sensitivity of cells),E. coli MG1655,significantly increased the sensitivity
same,melting point,,146 °C (dec.)
O=C(Cc1noc(-c2cccc(I)c2)n1)NO [Compound 23d],CC50 at 72 h,[1],171 ± 22.9 µM
same,Activity,E. coli MG1655,0
same,melting point,,156.3 °C (dec.)
O=C(NO)c1cccc(-c2noc(-c3ccccc3F)n2)c1 [Compound 26],CC50 at 72 h,[1],21.7 ± 3.43 µM
same,Activity,E. coli MG1655,0
same,melting point,,199.3 °C (dec.)
"O=C(NO)c1nnc(-c2ccc(I)cc2)o1 [Compound 30a, N-Hydroxy-5-(4-iodophenyl)-1,3,4-oxadiazole-2-carboxamide]",CC50 at 72 h,[1],62.2 ± 9.88 µM
same,Activity,E. coli MG1655,0
same,melting point,,184.4 °C (dec.)
"O=C(NO)c1nnc(-c2cccc(I)c2)o1 [Compound 30b, N-Hydroxy-5-(3-iodophenyl)-1,3,4-oxadiazole-2-carboxamide]",CC50 at 72 h,[1],> 200 µM
same,Activity,E. coli MG1655,1
same,potentiation of kanamycin (sensitivity of cells),E. coli MG1655,not to kanamycin
same,potentiating activity with nalidixic acid (growth inhibition),E. coli MG1655,inhibited bacterial growth less effectively; also recorded: weak potentiating activity
same,potentiation of rifampicin (sensitivity of cells),E. coli MG1655,significantly increased the sensitivity
same,melting point,,274.9 °C (dec.)
"Cc1cc(F)ccc1-c1nnc(C(=O)NO)o1 [Compound 30c, 5-(4-Fluoro-2-methylphenyl)-N-hydroxy-1,3,4-oxadiazole-2-carboxamide]",CC50 at 72 h,[1],> 200 µM
same,Activity,E. coli MG1655,0
same,melting point,,259.6 °C (dec.)
"COc1ccc(-c2nnc(C(=O)NO)o2)c(OC)c1 [Compound 30d, 5-(2,4-Dimethoxyphenyl)-N-hydroxy-1,3,4-oxadiazole-2-carboxamide]",CC50 at 72 h,[1],> 600 µM
same,Activity,E. coli MG1655,0
same,melting point,,197.3 °C (dec.)
"COc1cccc(-c2nnc(C(=O)NO)o2)c1OC [Compound 30e, 5-(2,3-Dimethoxyphenyl)-N-hydroxy-1,3,4-oxadiazole-2-carboxamide]",CC50 at 72 h,[1],770 ± 58.4 µM
same,Activity,E. coli MG1655,0
same,melting point,,166.7 °C (dec.)
"COc1ccc(-c2nnc(C(=O)NO)o2)cc1OC [Compound 30f, 5-(3,4-Dimethoxyphenyl)-N-hydroxy-1,3,4-oxadiazole-2-carboxamide]",CC50 at 72 h,[1],478 ± 50.5 µM
same,Activity,E. coli MG1655,0
same,melting point,,130.7 °C (dec.)
"CCn1cc(C(=O)O)c(=O)c2ccc(C)nc21 [nalidixic acid, reference compound]",MIC of antibiotic alone,P. aeruginosa ATCC 27853,17.22 µM
"CO[C@H]1/C=C/O[C@@]2(C)Oc3c(C)c(O)c4c(O)c(c(/C=N/N5CCN(C)CC5)c(O)c4c3C2=O)NC(=O)/C(C)=C\C=C\[C@H](C)[C@H](O)[C@@H](C)[C@@H](O)[C@@H](C)[C@H](OC(C)=O)[C@@H]1C [rifampicin, reference compound]",MIC of antibiotic alone,P. aeruginosa ATCC 27853,4.86 µM
